Data on 5 compounds can be found in ChEMBL document CHEMBL1212694, “Discovery and characterization of a marine bacterial SAM-dependent chlorinase” (Nat Chem Biol, 2008).

Assay [1] relates to Salinispora tropica CNB-440. The experiment in a line: Ratio of Kcat to Km for Salinispora tropica CNB-440 wild type recombinant SalL expressed in Escherichia coli BL21(DE3).
Assay [2] has as its system Salinispora tropica CNB-440. Nature of the assay: Activity at Salinispora tropica CNB-440 wild type recombinant SalL expressed in Escherichia coli BL21(DE3) after 30 mins by HPLC analysis.
For assay [3], the system named is Salinispora tropica CNB-440. The experiment in a line: Ratio of Kcat to Km for Salinispora tropica CNB-440 wild type recombinant SalL expressed in Escherichia coli BL21(DE3) for formation of S-Adenosyl methionine.
For assay [4], the system named is T1, Adenosyl-chloride synthase (Salinispora tropica (strain ATCC BAA-916 / DSM 44818 / CNB-440)), A4X3Q0 [Y70T].
T1 sequence (whole entry): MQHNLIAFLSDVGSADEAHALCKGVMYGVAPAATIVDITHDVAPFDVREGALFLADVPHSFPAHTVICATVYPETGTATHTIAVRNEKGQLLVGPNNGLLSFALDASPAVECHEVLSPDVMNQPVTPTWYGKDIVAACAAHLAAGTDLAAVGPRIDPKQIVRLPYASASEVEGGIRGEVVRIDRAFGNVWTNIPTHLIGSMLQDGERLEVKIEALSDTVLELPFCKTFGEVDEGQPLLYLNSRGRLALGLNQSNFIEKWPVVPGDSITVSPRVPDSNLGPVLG
The experiment in a line: Activity at Salinispora tropica CNB-440 recombinant SalL Y70T mutant expressed in Escherichia coli BL21(DE3) after 30 mins by HPLC analysis relative to S-Adenosyl methionine.

The test system of assay [5] is Salinispora tropica CNB-440. The experiment in a line: Effect on Salinispora tropica CNB-440 wild type recombinant SalL expressed in Escherichia coli BL21(DE3)-mediated S-Adenosyl methionine formation after 30 mins by HPLC analysis.
Assay [6] has as its system T2, Adenosyl-chloride synthase (Salinispora tropica (strain ATCC BAA-916 / DSM 44818 / CNB-440)), A4X3Q0 [W129F].
T2 sequence (whole entry): T1 sequence (whole entry) with T70Y, W129F
Nature of the assay: Activity at Salinispora tropica CNB-440 recombinant SalL W129F mutant expressed in Escherichia coli BL21(DE3) after 30 mins by HPLC analysis relative to S-Adenosyl methionine.

Assay [7] has as its system Salinispora tropica CNB-440. The experiment in a line: Activity at Salinispora tropica CNB-440 wild type recombinant SalL expressed in Escherichia coli BL21(DE3) assessed as formation of S-Adenosyl methionine after 30 mins by HPLC analysis.
In assay [8] the test system is T3, Adenosyl-chloride synthase (Salinispora tropica (strain ATCC BAA-916 / DSM 44818 / CNB-440)), A4X3Q0 [Y70T,G131S].
T3 sequence (whole entry): T1 sequence (whole entry) with G131S
Nature of the assay: Activity at Salinispora tropica CNB-440 recombinant SalL Y70T/G131S mutant expressed in Escherichia coli BL21(DE3) after 30 mins by HPLC analysis relative to S-Adenosyl methionine.

Assay [9] has as its system Salinispora tropica CNB-440. Nature of the assay: Activity at Salinispora tropica CNB-440 wild type recombinant SalL expressed in Escherichia coli BL21(DE3) after 30 mins by HPLC analysis relative to S-Adenosyl methionine.

Residue numbers refer to the chain shown, from its start. The source made the active and inactive calls. The rule behind the calls is not given here.

For `C[S+](CC[C@H](N)C(=O)[O-])C[C@H]1O[C@@H](n2cnc3c(N)ncnc32)[C@H](O)[C@@H]1O` (some centres not stated), in [1], the specificity constant (kcat/Km) was 15000 M⁻¹ s⁻¹. In [2], the Km was 1 µM and the kcat turned out to be 0.015 s⁻¹.
On to `Nc1ncnc2c1ncn2[C@@H]1O[C@H](CCl)[C@@H](O)[C@H]1O`, for which the specificity constant (kcat/Km) in [3] amounted to 1e+06 M⁻¹ s⁻¹. Moreover, the Activity in [4] stood at 1.1%; in [6] it was 11%; in assay [7], 1300%; in assay [8], 2.5%; in assay [9] it was 100%. Also, in assay [5], the Michaelis constant (Km) was found to be 0.2 µM. Also, the kcat in assay [5] amounted to 0.2 s⁻¹.
With `Nc1ncnc2c1ncn2[C@@H]1O[C@H](CI)[C@@H](O)[C@H]1O`, in [3], the kcat/Km is 181000 M⁻¹ s⁻¹. Besides, the Activity in [4] was 1.4%; in assay [6], 12%; in [7] it was 5560%; in assay [8], 0.8%; in assay [9] it was 100%. In addition, the Km in assay [5] came out at 4.6 µM. Also, the catalytic constant (kcat) in [5] amounted to 0.833 s⁻¹.
`CSCC[C@H](N)C(=O)O`: the kcat/Km in [3] is 76.7 M⁻¹ s⁻¹. Besides, in [5], the Km came to 2600 µM and the catalytic constant (kcat) came out at 0.2 s⁻¹. In addition, the Activity in [7] is 1300%.
Consider `Nc1ncnc2c1ncn2[C@@H]1O[C@H](CBr)[C@@H](O)[C@H]1O`, for which the kcat/Km result in assay [3] was “Active”. For the same compound, in assay [5], the Km result was “Active” and the kcat entry is “Active”. Besides, the outcome in [7] was Active.

What is called kcat/Km is the turnover number divided by the Michaelis constant. Usually Km stands for the substrate concentration at which the rate is half of its maximum. The term kcat denotes the maximal rate divided by the concentration of active sites.
